Patent US20050009820A1, “Thiochromenones used to combat painful conditions and neurodegenerative diseases” (priority 2001, published 2005)
pIC50: −log10 of the molar value.

Biological target: T1, mGluR1 receptor (Homo sapiens, UniProt Q13255)
T1 construct: expressed in transfected cells; host or cells: CHO cells
Assay: Determination of the activity on the mGluR1 receptor (luciferase luminescence in mGluR1 receptor-expressing CHO cells stimulated with 1 mM glutamate)
Type: cell-based
Conditions: 1 mM glutamate with the test substance, 37° C., 4 h, luminescence readout
Procedure: 1. Determination of the activity on the mGluR1 receptor
mGluR1 receptor-expressing CHO cells are seeded in 96-well plates (Greiner, Frickenhausen, Germany) (20 000 cells/well) and cultivated in ultra CHO medium (Bio-Whittaker, Walkersville, Md., 10% fetal calf serum) for one day. The substances to be tested are initially dissolved in a concentration of 10^−2 M in 100% DMSO and then diluted to the desired concentration with the culture medium. After being washed once with cell culture medium, the cells are incubated with 1 mM glutamate and simultaneously with the substance to be tested at 37° C. for 4 h. The medium is then aspirated off and the cells are lysed with 75 μl of Triton-luciferase buffer (1% Triton X 100, 10% glycerol, 2 mM DTT, 25 mM Na2HPO4, 25 mM TRIS), (530 μM ATP, 470 μM luciferin, 270 μM CoA, 20 mM tricine, 2.67 mM MgSO4, 33.3 mM DTT, 0.1 mM EDTA, pH 7.8). The luminescence is measured after one minute using a camera (Hamamatsu, Japan). Cells incubated only with glutamate show a marked increase in the luminescence compared with controls, while mGluR1 receptor antagonists reduce this concentration-dependently to below the initial luminscence.

T1 sequence (Q13255 19-1194): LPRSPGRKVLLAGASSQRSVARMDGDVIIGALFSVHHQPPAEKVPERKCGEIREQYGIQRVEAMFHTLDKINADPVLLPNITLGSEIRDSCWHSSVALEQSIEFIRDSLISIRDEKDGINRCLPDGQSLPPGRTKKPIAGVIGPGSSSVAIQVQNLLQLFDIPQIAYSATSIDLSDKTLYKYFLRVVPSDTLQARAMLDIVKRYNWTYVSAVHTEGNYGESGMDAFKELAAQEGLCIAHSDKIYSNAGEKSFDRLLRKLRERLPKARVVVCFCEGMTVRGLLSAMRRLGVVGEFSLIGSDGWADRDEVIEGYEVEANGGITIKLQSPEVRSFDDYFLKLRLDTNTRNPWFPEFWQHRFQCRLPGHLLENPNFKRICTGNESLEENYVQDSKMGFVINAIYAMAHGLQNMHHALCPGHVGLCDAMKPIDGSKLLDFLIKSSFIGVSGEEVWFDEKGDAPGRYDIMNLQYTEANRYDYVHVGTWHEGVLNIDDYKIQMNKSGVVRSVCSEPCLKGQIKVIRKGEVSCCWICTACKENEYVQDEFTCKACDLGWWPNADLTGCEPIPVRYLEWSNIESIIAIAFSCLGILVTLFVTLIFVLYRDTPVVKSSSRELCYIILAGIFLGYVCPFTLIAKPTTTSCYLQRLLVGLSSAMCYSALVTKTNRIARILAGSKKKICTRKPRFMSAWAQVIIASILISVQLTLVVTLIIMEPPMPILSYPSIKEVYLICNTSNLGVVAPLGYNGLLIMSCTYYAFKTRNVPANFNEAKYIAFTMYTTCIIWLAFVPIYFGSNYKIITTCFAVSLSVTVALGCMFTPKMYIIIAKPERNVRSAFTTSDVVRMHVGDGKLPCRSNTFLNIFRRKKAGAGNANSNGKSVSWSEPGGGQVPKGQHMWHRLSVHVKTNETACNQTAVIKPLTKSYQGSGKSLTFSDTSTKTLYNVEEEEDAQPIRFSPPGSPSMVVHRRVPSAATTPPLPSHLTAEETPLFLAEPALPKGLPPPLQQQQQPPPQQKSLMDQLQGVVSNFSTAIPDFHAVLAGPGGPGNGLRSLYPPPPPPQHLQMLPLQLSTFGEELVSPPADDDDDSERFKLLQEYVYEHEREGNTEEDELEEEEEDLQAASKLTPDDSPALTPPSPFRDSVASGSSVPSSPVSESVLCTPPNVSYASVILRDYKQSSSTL

Row | SMILES | pIC50
1 | CCC1CCc2c(sc3cc(-c4cccc(C#N)c4)ccc3c2=O)C1 (stereo not shown) [Example 1-29, 3-(3-Ethyl-9-oxo-2,3,4,9-tetrahydro-1H-thioxanthen-6-yl)benzonitrile] | 7.68
2 | CCC1CCc2c(sc3cc(-c4cncnc4)ccc3c2=O)C1 (stereo not shown) [Example 3-55] | 7.46
3 | CCC1CCc2c(sc3cc(-c4cccs4)ccc3c2=O)C1 (stereo not shown) [Example 1-10, 3-Ethyl-6-(2-thienyl)-1,2,3,4-tetrahydro-9H-thioxanthen-9-one] | 7.01
4 | CCC1CCc2c(sc3cc(N(C)CCOC)ccc3c2=O)C1 (stereo not shown) [Example 3-21, 3-Ethyl-6-[(2-methoxyethyl)(methyl)amino]-1,2,3,4-tetrahydro-9H-thio-xanthen-9-one] | 7.66
5 | CCC1CCc2c(sc3cc(N4CCCCC4)c(F)cc3c2=O)C1 (stereo not shown) [Example 3-23, 3-Ethyl-7-fluoro-6-(1-piperidinyl)-1,2,3,4-tetrahydro-9H-thioxanthen-9-one] | 7.55
6 | CCC(=O)Nc1ccc2c(=O)c3c(sc2c1)CC(CC)CC3 (stereo not shown) [Example 3-49, N-(3-Ethyl-9-oxo-2,3,4,9-tetrahydro-1H-thioxanthen-6-yl)propanamide] | 7.46
7 | CCC1CCc2c(sc3cc(-c4nnn[nH]4)ccc3c2=O)C1 (stereo not shown) [Example 1-3, 3-Ethyl-6-(1H-tetrazol-5-yl)-1,2,3,4-tetrahydro-9H-thioxanthen-9-one] | 8.05
8 | CC1(C)CCc2c(sc3cc(-c4cccnc4)ccc3c2=O)C1 [Example 1-31, 3,3-Dimnethyl-6-(3-pyridinyl)-1,2,3,4-tetrahydro-9H-thioxanthen-9-one] | 7.51
9 | CC1(C)CCc2c(sc3cc(-c4cccc(C#N)c4)ccc3c2=O)C1 [Example 1-27, 3-(3,3-Dimethyl-9-oxo-2,3,4,9-tetrahydro-1H-thioxanthen-6-yl)benzonitrile] | 7.64
10 | CCC1CCc2c(sc3cc(N(C)S(=O)(=O)c4cccc(C#N)c4)ccc3c2=O)C1 (stereo not shown) [Example 4-8, 3-Cyano-N-(3-ethyl-9-oxo-2,3,4,9-tetrahydro-1-thioxanthen-6-yl)-N-methylbenzenesulfonamide] | 7.60
11 | CCC1CCc2c(sc3cc(N4CCCCC4)ccc3c2=O)C1 (stereo not shown) [Example 3-22, 3-Ethyl-6-(1-piperidinyl)-1,2,3,4-tetrahydro-9H-thioxanthen-9-one] | 7.89
12 | CCC1CCc2c(sc3cc(-c4noc(=O)[nH]4)ccc3c2=O)C1 (stereo not shown) [Example 1-34, 3-(3-Ethyl-9-oxo-2,3,4,9-tetrahydro-1H-thioxanthen-6-yl)-1,2,4-oxadiazol-5(4H)-one] | 7.09

System: not given
Assay: not given
Conditions: not given

Row | SMILES | melting point [°C]
13 | CCC1CCc2c(sc3cc(-n4cccc4)ccc3c2=O)C1 (stereo not shown) [Example 2-25, 3-Ethyl-6-(1H-pyrrol-1-yl)-1,2,3,4-tetrahydro-9H-thioxanthen-9-one] | 145
14 | CC1(C)CCc2c(sc3cc(OS(=O)(=O)Cc4ccccc4OC(F)(F)F)ccc3c2=O)C1 [Example 2-14, 3,3-Dimethyl-9-oxo-2,3,4,9-tetrahydro-1H-thioxanthen-6-yl [2-(trifluoromethoxy)-phenyl]methanesulfonate] | 249
15 | CC1(C)CCc2c(sc3cc(NS(=O)(=O)c4ccccc4)ccc3c2=O)C1 [Example 2-12, N-(3,3-Dimethyl-9-oxo-2,3,4,9-tetrahydro-1H-thioxanthen-6-yl)benzenesulfonamide] | 231
16 | Cc1ccc(S(=O)(=O)Nc2ccc3c(=O)c4c(sc3c2)CC(C)(C)CC4)cc1 [Example 2-13, N-(3,3-Dimethyl-9-oxo-2,3,4,9-tetrahydro-1H-thioxanthen-6-yl)-4-methylbenzenesulfonamide] | 279
17 | CC(C)S(=O)(=O)Nc1ccc2c(=O)c3c(sc2c1)CC(C)(C)CC3 [Example 2-15, N-(3,3-Dimethyl-9-oxo-2,3,4,9-tetrahydro-1H-thioxanthen-6-yl)isopropylsulfonamide] | 263
18 | CC1(C)CCc2c(sc3cc(-n4cccc4)ccc3c2=O)C1 [Example 2-24, 3,3-Dimethyl-6-(1H-pyrrol-1-yl)-1,2,3,4-tetrahydro-9H-thioxanthen-9-one] | 169
19 | CC1(C)CCc2c(sc3cc(NS(C)(=O)=O)ccc3c2=O)C1 [Example 2-11, N-(3,3-Dimethyl-9-oxo-2,3,4,9-tetrahydro-1H-thioxanthen-6-yl)methanesulfonamide] | 272
